Source: BigSolDB 2.1

CCc1ccc(CCOc2ccc(CC3SC(=O)NC3=O)cc2)nc1.Cl (stereo not drawn)
solubility (mole fraction)
Conditions | in DMF | in acetic acid | in ethanol | in methanol | in n-propanol
278.15 K | 0.0161 | – | 0.000535 | 0.004 | 0.000325
283.15 K | 0.017 | – | – | 0.00494 | 0.000395
284.15 K | – | – | 0.000626 | – | –
288.15 K | 0.0183 | 0.00108 | 0.000723 | 0.00615 | 0.000456
293.15 K | 0.0194 | 0.0015 | 0.000879 | 0.00738 | 0.000522
298.15 K | 0.021 | 0.00203 | 0.00103 | 0.0086 | 0.00063
303.15 K | 0.0227 | 0.00276 | 0.00121 | 0.0101 | 0.00075
308.15 K | 0.0247 | 0.0038 | 0.00147 | 0.0121 | 0.00088
313.15 K | 0.0269 | 0.00558 | 0.00178 | 0.0144 | 0.00104
318.15 K | 0.0292 | 0.00804 | 0.00222 | 0.0173 | 0.00127
323.15 K | 0.0323 | 0.0118 | 0.00266 | 0.0211 | 0.00149
